Source: patent US12331022B2, “Spiropiperidine allosteric modulators of nicotinic acetylcholine receptors” (Merck Sharp & Dohme LLC, priority 2019, dated 2025)
Where two headings read alike, the source gives them in different places.

Molecular target: T1, human α7 nAChR (Homo sapiens, UniProt P36544)
T1 construct: host or cells: HEK
Test: Automated patch-clamp electrophysiology functional assay (Assay A)
Format: cell-based
Conditions: HEK cell line stably expressing human RIC-3 and human α7, IonFlux HT whole-cell population patch, with or without 40 μM acetylcholine
Experimental: The α7 nAChR positive allosteric modulator (PAM) activity of the present compounds may be tested using assays known in the art. The α7 nAChR PAMs described herein have activities in an automated patch-clamp electrophysiology functional assay as described in the examples. The assay was performed using the IonFlux HT in a whole-cell, population patch configuration. See Golden et al. Assay Drug Dev. Technol. (2011) 9:608-619. The compounds were assessed for their ability to modulate the function of the human α7 nAChR stably expressed in a HEK cell line both in the presence, and in the absence of the natural α7 agonist acetylcholine. By performing a series of such measurements at different concentrations, the effective concentration of the α7 nAChR PAMs (EC50) was determined. See Spencer et al. Assay Drug Dev. Technol. (2012) 10:313-324.
Direct activation of α7 (agonism), and potentiation of acetylcholine-evoked α7 currents was determined as follows:
Automated patch-clamp electrophysiology was performed using the IonFlux HT (Fluxion Biosciences Inc., San Francisco, CA) in the whole-cell, population patch configuration. Test compounds were assessed for their ability to modulate the function of the α7 nicotinic acetylcholine receptor both in the presence, and in the absence of the natural α7 agonist acetylcholine. A HEK cell line stably expressing both human RIC-3 and human α7 (PrecisION hnAChR α7/RIC-3, Eurofins Pharma, St. Charles, MO) was cultured in 175 cm^2 triple-layer tissue culture flasks to no more than 90% confluency in DMEM/F-12 growth media supplemented with 10% heat-inactivated fetal bovine serum, 1% non-essential amino acids, 0.625 μg/mL Puromycin, and 400 μg/mL Geneticin. Immediately prior to assay, cells were detached by first aspirating growth media, rinsing with Dulbecco's phosphate buffered saline, and then adding 10 mL of Accutase (Innovative Cell Technologies, San Diego, CA) to the flask and then incubating at 37° C. for 5 minutes. Detached cells were then recovered by the addition of 40 mL of CHO-serum-free media supplemented with 25 mM HEPES, and rocked gently in a 50 mL conical tube for 20 minutes prior to patch-clamp assay. After recovery, cells were pelleted by centrifugation at 1,000 RPM for 1 minute in a compact bench top centrifuge; recovery media was aspirated and cells were resuspended in external recording solution (150 mM NaCl, 5 mM KCl, 2 mM CaCl2, 1 mM MgCl2, 10 mM HEPES, 12 mM dextrose) to a density of 5.0×10^6 cells/mL. The cell suspension was added to the cell inlet wells on an IonFlux HT population patch plate which had previously been rinsed and primed with deionized H2O. Test compounds were serially diluted in DMSO and then resuspended to the final test concentration in external recording solution, with, or without 40 μM acetylcholine added to the external recording solution; test compounds were then transferred to the IonFlux HT population patch plate. Internal recording solution (110 mM TrisPO4, 28 mM TrisBase, 0.1 mM CaCl2, 2 mM MgCl2, 11 mM EGTA, 4 mM MgATP) was added to the internal recording solution inlet wells on the IonFlux HT patch plate previously loaded with cells and test compounds, and the plate loaded into the IonFlux HT instrument. A protocol was executed on the IonFlux HT to trap the cells, break into the cells, and establish the whole-cell recording configuration; cells were voltage-clamped at a holding potential of −60 mV for the duration of the experiment, all experiments were conducted at room temperature, and the IonFlux HT injection pressure was 8 psi for solution applications. Upon establishing the whole-cell configuration, external recording solution was perfused into the recording chambers for 120 seconds and then 40 μM acetylcholine was applied for 1 second and immediately washed off with external recording solution for 60 seconds. […]

T1 sequence (P36544 23-502): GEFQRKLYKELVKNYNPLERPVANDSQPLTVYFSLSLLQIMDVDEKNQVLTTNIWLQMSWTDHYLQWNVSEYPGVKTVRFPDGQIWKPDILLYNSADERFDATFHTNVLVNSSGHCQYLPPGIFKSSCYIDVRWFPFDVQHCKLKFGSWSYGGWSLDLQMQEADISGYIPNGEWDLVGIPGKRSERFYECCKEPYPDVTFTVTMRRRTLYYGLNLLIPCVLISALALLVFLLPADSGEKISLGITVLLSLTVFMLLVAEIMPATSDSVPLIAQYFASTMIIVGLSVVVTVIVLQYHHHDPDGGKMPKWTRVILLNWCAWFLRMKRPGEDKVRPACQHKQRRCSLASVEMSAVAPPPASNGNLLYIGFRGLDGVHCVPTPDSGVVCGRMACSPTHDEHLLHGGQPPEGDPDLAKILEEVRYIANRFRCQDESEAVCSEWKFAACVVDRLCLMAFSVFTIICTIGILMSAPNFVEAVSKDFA

Compound	EC50 (read-out: α7 nAChR EC50) [nM]	EC50 (read-out: α7 nAChR Potency) [nM]
NS(=O)(=O)N1CCC2(CC1)C[C@H]2COc1noc(-c2ccccc2)n1 [Example 4, (1R)-1-{[(5-Phenyl-1,2,4-oxadiazol-3-yl)oxy]methyl}-6-azaspiro[2.5]octane-6-sulfonamide]	580	500 to 5000
NS(=O)(=O)N1CCC2(CC1)C(COc1noc(-c3ccccc3)n1)C2(F)F (single isomer, unassigned) [Example 6, 1,1-Difluoro-2-{[(5-phenyl-1,2,4-oxadiazol-3-yl)oxy]methyl}-6-azaspiro[2.5]octane-6-sulfonamide]	49	≤ 100
NS(=O)(=O)N1CCC2(CC1)CC2COc1ccnc(OC(F)F)c1 (centres unmarked) [Example 1, 1-({[2-(Difluoromethoxy)pyridin-4-yl]oxy}methyl)-6-azaspiro[2.5]octane-6-sulfonamide]	730	500 to 5000
COc1ccc(Cl)cc1S(=O)(=O)C[C@@H]1CC12CCN(S(N)(=O)=O)CC2 [Example 12, (1R)-1-{[(5-Chloro-2-methoxyphenyl)sulfonyl]methyl}-6-azaspiro[2.5]octane-6-sulfonamide]	1600	500 to 5000
NS(=O)(=O)N1CCC2(CC1)C[C@H]2COc1cccnc1OCC(F)(F)F [Example 8, (1R)-1-({[2-(2,2,2-Trifluoroethoxy)pyridin-3-yl]oxy}methyl)-6-azaspiro[2.5]octane-6-sulfonamide]	1200	500 to 5000
COc1ccc(Cl)cc1NC[C@@H]1CC12CCN(S(N)(=O)=O)CC2 [Example 14, (1R)-1-{[(5-Chloro-2-methoxyphenyl)amino]methyl}-6-azaspiro[2.5]octane-6-sulfonamide]	48	≤ 100
NS(=O)(=O)N1CCC2(CC1)CC2COc1ccnc(C(F)(F)F)c1 (centres unmarked) [Example 5, 1-({[2-(Trifluoromethyl)pyridin-4-yl]oxy}methyl)-6-azaspiro[2.5]octane-6-sulfonamide]	3200	500 to 5000
NS(=O)(=O)N1CCC2(CC1)C[C@H]2COc1cccc(NCC(F)(F)F)n1 [Example 10, (1R)-1-[({6-[(2,2,2-Trifluoroethyl)amino]pyridin-2-yl}oxy)methyl]-6-azaspiro[2.5]octane-6-sulfonamide]	74	≤ 100
NS(=O)(=O)N1CCC2(CC1)C(CCc1ccc(F)cc1C(F)(F)F)C2(F)F (centres unmarked) [Example 18, 1,1-Difluoro-2-{2-[4-fluoro-2-(trifluoromethyl)phenyl]ethyl}-6-azaspiro[2.5]octane-6-sulfonamide]		5000 to 50000

Second part, the molecule after the results:

EC50 (read-out: α7 nAChR EC50) [nM]	EC50 (read-out: α7 nAChR Potency) [nM]	Compound
1700	500 to 5000	Cc1cccc(OC[C@@H]2CC23CCN(S(N)(=O)=O)CC3)n1 [Example A48, (1R)-1-{[(6-methylpyridin-2-yl)oxy]methyl}-6-azaspiro[2.5]octane-6-sulfonamide]
	500 to 5000	COc1cccc(OCC2CC23CCN(S(N)(=O)=O)CC3)n1 (racemic) [Example A27, 1-{[(6-methoxypyridin-2-yl)oxy]methyl}-6-azaspiro[2.5]octane-6-sulfonamide]
	500 to 5000	NS(=O)(=O)N1CCC2(CC1)C[C@H]2C(=O)Nc1cccc(Cl)c1 [Example B2, (1R)—N-(3-chlorophenyl)-6-sulfamoyl-6-azaspiro[2.5]octane-1-carboxamide]
280	100 to 500	NS(=O)(=O)N1CCC2(CC1)C[C@H]2COc1cccc(C2CC2)n1 [Example A49]
	≤ 100	COc1ccc(F)c(OCC2C(F)(F)C23CCN(S(N)(=O)=O)CC3)c1 (single isomer, unassigned) [Example A31, 1,1-difluoro-2-[(2-fluoro-5-methoxyphenoxy)methyl]-6-azaspiro[2.5]octane-6-sulfonamide]
190	100 to 500	Cc1cc(C)n(-c2cccc(OC[C@@H]3CC34CCN(S(N)(=O)=O)CC4)n2)n1 [Example A19, (1R)-1-({[6-(3,5-dimethyl-1H-pyrazol-1-yl)pyridin-2-yl]oxy}methyl)-6-azaspiro[2.5]octane-6-sulfonamide]
190	100 to 500	COc1cc(OC[C@H]2CC23CCN(S(N)(=O)=O)CC3)nc(OCC(F)(F)F)c1 [Example A16, (1S)-1-({[4-methoxy-6-(2,2,2-trifluoroethoxy)pyridin-2-yl]oxy}methyl)-6-azaspiro[2.5]octane-6-sulfonamide]
940	500 to 5000	COc1cc(F)ccc1OC[C@@H]1CC12CCN(S(N)(=O)=O)CC2 [Example A6, (1R)-1-[(4-fluoro-2-methoxyphenoxy)methyl]-6-azaspiro[2.5]octane-6-sulfonamide]
1500	500 to 5000	NS(=O)(=O)N1CCC2(CC1)C(COc1ccc(F)cc1C(F)(F)F)C2(F)F (single isomer, unassigned) [Example A10, 1,1-difluoro-2-{[4-fluoro-2-(trifluoromethyl)phenoxy]methyl}-6-azaspiro[2.5]octane-6-sulfonamide]
1200	500 to 5000	NS(=O)(=O)N1CCC2(CC1)C(COc1cccnc1OCC(F)(F)F)C2(F)F (single isomer, unassigned) [Example A36, 1,1-difluoro-2-({[2-(2,2,2-trifluoroethoxy)pyridin-3-yl]oxy}methyl)-6-azaspiro[2.5]octane-6-sulfonamide]
	500 to 5000	CN1CCN(c2cccc(OC[C@@H]3CC34CCN(S(N)(=O)=O)CC4)n2)CC1 [Example A46, (1R)-1-({[6-(4-methylpiperazin-1-yl)pyridin-2-yl]oxy}methyl)-6-azaspiro[2.5]octane-6-sulfonamide]
3100	500 to 5000	NS(=O)(=O)N1CCC2(CC2COc2noc(-c3ccccc3)n2)C(F)(F)C1 (racemic) [Example A22, 4,4-difluoro-1-{[(5-phenyl-1,2,4-oxadiazol-3-yl)oxy]methyl}-6-azaspiro[2.5]octane-6-sulfonamide]
11	≤ 100	Cc1ccc(C)c(NC[C@@H]2C(F)(F)C23CCN(S(N)(=O)=O)CC3)c1 [Example A60, (2R)-2-{[(2,5-dimethylphenyl)amino]methyl}-1,1-difluoro-6-azaspiro[2.5]octane-6-sulfonamide]
570	500 to 5000	COc1cccc(OC[C@@H]2CC23CCN(S(N)(=O)=O)CC3)n1 [Example A51, (1R)-1-{[(6-methoxypyridin-2-yl)oxy]methyl}-6-azaspiro[2.5]octane-6-sulfonamide]
1100	500 to 5000	NS(=O)(=O)N1CCC2(CC1)C(COc1noc(-c3ccccc3)n1)C2(F)F (single isomer, unassigned) [Example A21, 1,1-difluoro-2-{[(5-phenyl-1,2,4-oxadiazol-3-yl)oxy]methyl}-6-azaspiro[2.5]octane-6-sulfonamide]
540	500 to 5000	NS(=O)(=O)N1CCC2(CC1)C(COc1cccnc1OCC(F)(F)F)C2(F)F (single isomer, unassigned) [Example A35, 1,1-difluoro-2-({[2-(2,2,2-trifluoroethoxy)pyridin-3-yl]oxy}methyl)-6-azaspiro[2.5]octane-6-sulfonamide]
2000	500 to 5000	NS(=O)(=O)N1CCC2(CC1)C(CSc1nnnn1-c1ccccc1)C2(F)F (single isomer, unassigned) [Example A62, 1,1-difluoro-2-{[(1-phenyl-1H-tetrazol-5-yl)sulfanyl]methyl}-6-azaspiro[2.5]octane-6-sulfonamide]
